According to PubChem BioAssay AID1259407 (Chemical Carcinogenesis Research Information System (CCRIS), 2018):
Calls of active or inactive are those of the source. The rule behind the calls is not given here.

System: CCRIS mutagenicity, Ames/micronucleus/aberration tests
Assay: CCRIS mutagenicity studies
[1] = Test System: AMES SALMONELLA TYPHIMURIUM, Strain/Indicator: TA100, Metabolic Activation: NONE, Method: STANDARD PLATE
[2] = Test System: AMES SALMONELLA TYPHIMURIUM, Strain/Indicator: TA100, Metabolic Activation: RAT, LIVER, S-9, AROCLOR 1254, Method: STANDARD PLATE
[3] = Test System: AMES SALMONELLA TYPHIMURIUM, Strain/Indicator: TA1535, Metabolic Activation: NONE, Method: STANDARD PLATE
[4] = Test System: AMES SALMONELLA TYPHIMURIUM, Strain/Indicator: TA98, Metabolic Activation: NONE, Method: STANDARD PLATE
[5] = Test System: AMES SALMONELLA TYPHIMURIUM, Strain/Indicator: TA97, Metabolic Activation: NONE, Method: STANDARD PLATE
[6] = Test System: AMES SALMONELLA TYPHIMURIUM, Strain/Indicator: TA97, Metabolic Activation: RAT, LIVER, S-9, AROCLOR 1254, Method: STANDARD PLATE
[7] = Test System: AMES SALMONELLA TYPHIMURIUM, Strain/Indicator: TA98, Metabolic Activation: RAT, LIVER, S-9, AROCLOR 1254, Method: STANDARD PLATE
[8] = Test System: AMES SALMONELLA TYPHIMURIUM, Strain/Indicator: TA102, Metabolic Activation: NONE, Method: STANDARD PLATE
[9] = Test System: AMES SALMONELLA TYPHIMURIUM, Strain/Indicator: TA102, Metabolic Activation: RAT, LIVER, S-9, AROCLOR 1254, Method: STANDARD PLATE

CC1CO1 (configuration not stated)
mutagenic call (End Point: IN VITRO CHROMOSOMAL ABERRATIONS, Test System: CHL CELLS, Metabolic Activation: NONE): active; positive (structural changes)
mutagenic call (End Point: IN VITRO CHROMOSOMAL ABERRATIONS, Test System: CHL CELLS, Metabolic Activation: RAT, LIVER, S-9, SODIUM PHENOBARBITAL AND 5,6-BENZOFLAVONE): active; positive (structural changes)
mutagenic call (End Point: IN VITRO CHROMOSOMAL ABERRATIONS, Test System: CHO CELLS, Metabolic Activation: NONE): active; positive; weak response
mutagenic call (Test System: AMES SALMONELLA TYPHIMURIUM, Strain/Indicator: TA100, Metabolic Activation: HAMSTER, LIVER, S-9, AROCLOR 1254 (10%), Method: PREINCUBATION): active; positive
mutagenic call (Test System: AMES SALMONELLA TYPHIMURIUM, Strain/Indicator: TA100, Metabolic Activation: NONE, Method: FLASK VAPORIZATION): active; positive
mutagenic call (Test System: AMES SALMONELLA TYPHIMURIUM, Strain/Indicator: TA100, Metabolic Activation: NONE, Method: PREINCUBATION): active; positive
mutagenic call [1]: active; positive
mutagenic call (Test System: AMES SALMONELLA TYPHIMURIUM, Strain/Indicator: TA100, Metabolic Activation: NONE, Method: SUSPENSION/PLATE): active; positive
mutagenic call (Test System: AMES SALMONELLA TYPHIMURIUM, Strain/Indicator: TA100, Metabolic Activation: RAT, LIVER, S-9, AROCLOR 1254 (10%), Method: PREINCUBATION): active; positive
mutagenic call (Test System: AMES SALMONELLA TYPHIMURIUM, Strain/Indicator: TA100, Metabolic Activation: RAT, LIVER, S-9, AROCLOR 1254, Method: FLASK VAPORIZATION): active; positive
mutagenic call [2]: active; positive
mutagenic call (Test System: AMES SALMONELLA TYPHIMURIUM, Strain/Indicator: TA1535, Metabolic Activation: HAMSTER, LIVER, S-9, AROCLOR 1254 (10%), Method: PREINCUBATION): active; positive
mutagenic call (Test System: AMES SALMONELLA TYPHIMURIUM, Strain/Indicator: TA1535, Metabolic Activation: NONE, Method: FLASK VAPORIZATION): active; positive
mutagenic call (Test System: AMES SALMONELLA TYPHIMURIUM, Strain/Indicator: TA1535, Metabolic Activation: NONE, Method: PREINCUBATION): active; positive
mutagenic call [3]: active; positive
mutagenic call (Test System: AMES SALMONELLA TYPHIMURIUM, Strain/Indicator: TA1535, Metabolic Activation: NONE, Method: SUSPENSION/PLATE): active; positive
mutagenic call (Test System: AMES SALMONELLA TYPHIMURIUM, Strain/Indicator: TA1535, Metabolic Activation: RAT, LIVER, S-9, AROCLOR 1254 (10%), Method: PREINCUBATION): active; positive
mutagenic call (Test System: AMES SALMONELLA TYPHIMURIUM, Strain/Indicator: TA1535, Metabolic Activation: RAT, LIVER, S-9, AROCLOR 1254, Method: FLASK VAPORIZATION): active; positive
mutagenic call (Test System: AMES SALMONELLA TYPHIMURIUM, Strain/Indicator: TA1535, Metabolic Activation: RAT, LIVER, S-9, AROCLOR 1254, Method: STANDARD PLATE): active; positive
mutagenic call (Test System: Ames Salmonella typhimurium, Strain/Indicator: YG7108, Metabolic Activation: None, Method: Standard plate): active; positive
mutagenic call (Test System: MOUSE LYMPHOMA, Strain/Indicator: L5178Y (TK+/TK-), Metabolic Activation: NONE, Method: SUSPENSION/PLATE): active; positive

COc1c2ccoc2nc2c(OC)c(OCC3OC3(C)C)ccc12 (configuration not stated)
mutagenic call (Test System: AMES SALMONELLA TYPHIMURIUM, Strain/Indicator: TA98, Metabolic Activation: RAT, LIVER, S-9, PHENOBARBITAL, Method: STANDARD PLATE): inactive; negative
mutagenic call (Test System: AMES SALMONELLA TYPHIMURIUM, Strain/Indicator: TA100, Metabolic Activation: RAT, LIVER, S-9, PHENOBARBITAL, Method: STANDARD PLATE): inactive; negative

O=[N+]([O-])c1ccc2nscc2c1
mutagenic call [4]: active; positive
mutagenic call (Test System: AMES SALMONELLA TYPHIMURIUM, Strain/Indicator: TA98, Metabolic Activation: S-9, Method: STANDARD PLATE): active; positive
mutagenic call [1]: active; positive
mutagenic call (Test System: AMES SALMONELLA TYPHIMURIUM, Strain/Indicator: TA100, Metabolic Activation: S-9, Method: STANDARD PLATE): active; positive
mutagenic call [3]: active; positive
mutagenic call (Test System: AMES SALMONELLA TYPHIMURIUM, Strain/Indicator: TA1535, Metabolic Activation: S-9, Method: STANDARD PLATE): active; positive
mutagenic call (Test System: AMES SALMONELLA TYPHIMURIUM, Strain/Indicator: TA1537, Metabolic Activation: NONE, Method: STANDARD PLATE): active; positive
mutagenic call (Test System: AMES SALMONELLA TYPHIMURIUM, Strain/Indicator: TA1537, Metabolic Activation: S-9, Method: STANDARD PLATE): active; positive

CCC(CCC(C)O)COC(=O)CCCCC(=O)O (configuration not stated)
mutagenic call [5]: inactive; negative
mutagenic call [6]: inactive; negative
mutagenic call (Test System: AMES SALMONELLA TYPHIMURIUM, Strain/Indicator: TA97, Metabolic Activation: RAT, LIVER, S-9, DI(2-ETHYLHEXYL)PHTHALATE, Method: STANDARD PLATE): inactive; negative
mutagenic call [4]: inactive; negative
mutagenic call [7]: inactive; negative
mutagenic call (Test System: AMES SALMONELLA TYPHIMURIUM, Strain/Indicator: TA98, Metabolic Activation: RAT, LIVER, S-9, DI(2-ETHYLHEXYL)PHTHALATE, Method: STANDARD PLATE): inactive; negative
mutagenic call [1]: inactive; negative
mutagenic call [2]: inactive; negative
mutagenic call (Test System: AMES SALMONELLA TYPHIMURIUM, Strain/Indicator: TA100, Metabolic Activation: RAT, LIVER, S-9, DI(2-ETHYLHEXYL)PHTHALATE, Method: STANDARD PLATE): inactive; negative
mutagenic call [8]: inactive; negative
mutagenic call [9]: inactive; negative
mutagenic call (Test System: AMES SALMONELLA TYPHIMURIUM, Strain/Indicator: TA102, Metabolic Activation: RAT, LIVER, S-9, DI(2-ETHYLHEXYL)PHTHALATE, Method: STANDARD PLATE): inactive; negative

Fc1cccc(F)n1
mutagenic call [5]: inactive; negative
mutagenic call [6]: inactive; negative
mutagenic call [4]: inactive; negative
mutagenic call [7]: inactive; negative
mutagenic call [1]: inactive; negative
mutagenic call [2]: inactive; negative
mutagenic call [8]: inactive; negative
mutagenic call [9]: inactive; negative

N=c1c2ncn(C(c3ccccc3)(c3ccccc3)c3ccccc3)c2ncn1O
mutagenic call [5]: inactive; negative
mutagenic call [6]: inactive; negative
mutagenic call [4]: inactive; negative
mutagenic call [7]: active; positive
mutagenic call [1]: inactive; negative
mutagenic call [2]: inactive; negative

C=CCc1[c-]cccc1.C=CCc1[c-]cccc1.[Pt+2].c1ccc(P(c2ccccc2)c2ccccc2)cc1
mutagenic call (Test System: AMES SALMONELLA TYPHIMURIUM, Strain/Indicator: TA92, Metabolic Activation: NONE, Method: STANDARD PLATE): inactive; negative
mutagenic call [4]: active; positive
mutagenic call [1]: inactive; negative
mutagenic call (Test System: AMES SALMONELLA TYPHIMURIUM, Strain/Indicator: TA2410, Metabolic Activation: NONE, Method: STANDARD PLATE): inactive; negative

Nc1ccccc1SCSc1ccccc1N
mutagenic call [4]: inactive; negative
mutagenic call [7]: inactive; negative
mutagenic call [1]: inactive; negative
mutagenic call [2]: active; positive

COc1nsc2ccc(OCC3CO3)cc12 (configuration not stated)
mutagenic call [1]: active; positive

C=CC1=C(C)C(=O)N/C1=C\c1[nH]c(Cc2[nH]c(/C=C3\NC(=O)C(C)=C3C=C)c(C)c2CCC(=O)NCCS(=O)(=O)O)c(CCC(=O)NCCS(=O)(=O)O)c1C
mutagenic call (Test System: Ames Salmonella typhimurium, Strain/Indicator: TA98, Metabolic Activation: Liver, S-9, Method: Preincubation): inactive; negative
mutagenic call (Test System: Ames Salmonella typhimurium, Strain/Indicator: TA98, Metabolic Activation: None, Method: Preincubation): inactive; negative
mutagenic call (Test System: Ames Salmonella typhimurium, Strain/Indicator: TA100, Metabolic Activation: Liver, S-9, Method: Preincubation): inactive; negative
mutagenic call (Test System: Ames Salmonella typhimurium, Strain/Indicator: TA100, Metabolic Activation: None, Method: Preincubation): inactive; negative
mutagenic call (Test System: Ames Salmonella typhimurium, Strain/Indicator: TA102, Metabolic Activation: Liver, S-9, Method: Preincubation): inactive; negative
mutagenic call (Test System: Ames Salmonella typhimurium, Strain/Indicator: TA102, Metabolic Activation: None, Method: Preincubation): inactive; negative
